This note sets out measurements from patent US11198713B2, “Agents modulating beta-catenin functions and methods thereof” (FOG PHARMACEUTICALS, INC., priority 2017, dated 2021).

Usually EC50 stands for the concentration giving half of the maximal effect. Usually Kd stands for the equilibrium constant for the complex coming apart. For orientation: solubility means the concentration that dissolves in the medium under given conditions.

Values after ≈ are worked out from the molar mass of the structure shown. Like-named read-outs stand apart in the source and are kept apart here. Numbered stars: 1 amine (or outer) side, 2 acyl side, 3 side chain; on linkers, the order of the positions; unused ones are H or OH. Bridge positions count the residues as written; N and C are the ends. Square brackets hold non-standard residues; d marks the D form. R6 = (R)-2-(5-hexenyl)alanine, C=CCCCC[C@@](C)(N[*:1])C(=O)[*:2]; MA = Monomer A (Az), N-Alloc azetidine stapling residue Bounds are passed on as bounds.

Data set [1] deals with T1, full-length beta-catenin (Axin site) (Homo sapiens, UniProt P35222).
T1 construct: 15 nM full-length beta-catenin, 20 nM FITC labeled peptide in buffer
T1 sequence (P35222 1-781): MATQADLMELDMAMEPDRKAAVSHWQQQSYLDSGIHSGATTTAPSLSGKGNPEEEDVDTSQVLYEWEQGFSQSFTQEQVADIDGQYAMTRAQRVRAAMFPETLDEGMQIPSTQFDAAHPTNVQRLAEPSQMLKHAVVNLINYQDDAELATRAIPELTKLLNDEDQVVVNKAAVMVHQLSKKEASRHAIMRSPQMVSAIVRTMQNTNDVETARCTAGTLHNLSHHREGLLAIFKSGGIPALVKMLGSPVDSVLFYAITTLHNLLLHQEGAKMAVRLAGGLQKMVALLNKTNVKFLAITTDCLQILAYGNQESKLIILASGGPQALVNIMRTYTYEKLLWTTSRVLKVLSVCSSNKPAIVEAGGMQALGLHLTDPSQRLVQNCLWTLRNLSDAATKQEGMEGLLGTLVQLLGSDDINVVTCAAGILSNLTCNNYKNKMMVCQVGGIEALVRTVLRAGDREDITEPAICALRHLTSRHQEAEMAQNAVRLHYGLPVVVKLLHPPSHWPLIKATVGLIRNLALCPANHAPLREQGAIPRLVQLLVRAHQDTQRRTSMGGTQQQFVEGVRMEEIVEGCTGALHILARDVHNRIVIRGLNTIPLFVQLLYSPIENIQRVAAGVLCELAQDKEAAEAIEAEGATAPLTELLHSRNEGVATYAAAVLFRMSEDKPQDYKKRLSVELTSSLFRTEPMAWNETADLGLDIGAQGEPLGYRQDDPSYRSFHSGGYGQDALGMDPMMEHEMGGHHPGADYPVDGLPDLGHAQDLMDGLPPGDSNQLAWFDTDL
Put plainly: Competition fluorescence polarization assay (Axin site probe). The following applies: competition fluorescence polarization, Table 2; read-out: in vitro FP EC50. It counts as binding. The gist of the method: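 Competition FP: 15 nM full-length β-catenin pre-incubated 5 min with 20 nM FITC-labelled stapled Axin-site peptide, then titrated peptide added (3-fold series from 5 μM) for 15 min in the dark. Buffer 50 mM Tris pH 8.0, 250 mM NaCl, 2% glycerol, 0.5 mM EDTA; duplicate reads.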

Data set [2] concerns the target T2, biotinylated beta-catenin (Homo sapiens, UniProt P35222).
T2 sequence (P35222 1-781): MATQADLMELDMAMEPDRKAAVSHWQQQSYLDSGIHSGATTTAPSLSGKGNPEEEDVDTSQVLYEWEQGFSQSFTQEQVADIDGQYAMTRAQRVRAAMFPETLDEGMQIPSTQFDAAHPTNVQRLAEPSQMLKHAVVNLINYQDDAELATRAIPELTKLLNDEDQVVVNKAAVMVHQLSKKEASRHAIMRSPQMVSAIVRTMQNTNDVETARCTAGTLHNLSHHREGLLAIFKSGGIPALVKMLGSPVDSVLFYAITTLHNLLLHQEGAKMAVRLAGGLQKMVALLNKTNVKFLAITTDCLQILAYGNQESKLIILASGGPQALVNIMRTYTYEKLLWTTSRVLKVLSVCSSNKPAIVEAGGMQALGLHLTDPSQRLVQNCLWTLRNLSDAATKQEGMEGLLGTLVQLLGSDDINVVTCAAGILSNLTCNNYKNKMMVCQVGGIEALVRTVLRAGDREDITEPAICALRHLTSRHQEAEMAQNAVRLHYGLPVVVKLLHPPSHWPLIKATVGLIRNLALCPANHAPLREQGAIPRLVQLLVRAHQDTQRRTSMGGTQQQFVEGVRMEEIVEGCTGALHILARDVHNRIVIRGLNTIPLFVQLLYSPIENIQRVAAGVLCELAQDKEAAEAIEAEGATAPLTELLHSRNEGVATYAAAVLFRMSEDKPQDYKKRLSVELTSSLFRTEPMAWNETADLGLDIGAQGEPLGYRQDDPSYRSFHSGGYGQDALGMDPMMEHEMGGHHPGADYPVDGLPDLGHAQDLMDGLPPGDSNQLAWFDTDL
Put plainly: Surface Plasmon Resonance (Biacore). It counts as binding. How it is done:
Additionally or alternatively, binding to beta-catenin may be measured by Surface Plasmon Resonance. In an exemplary assay, approximately 6 nmol dried peptide diluted in buffer (50 mM Tris pH 8.0, 300 mM NaCl, 2% glycerol, 0.5 mM TCEP, 0.5 mM EDTA, 0.005% Tween-20, 1 mg/mL CM Dextran, 0.02% w/v sodium azide) was assayed on a Biacore X100 using the Biacore Biotin CAPture Kit (GE Healthcare) and biotinylated beta-catenin. Results were analyzed using the Biacore X100 Evaluation Software. […] FPO217c (Isomer 2) bound to the armadillo domain of β-catenin with a Kd of 2 nM.
On the technique in general: In SPR one partner is held on a chip, and binding of the other changes the refractive index at the surface.

Data set [3] is described as follows: Solubility in DPBS (A280 of supernatant). It counts as physicochemical. To be noted: DPBS. The method, boiled down: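 Dried peptide reconstituted in DPBS in triplicate, vortexed, sonicated and centrifuged. Supernatant A280 measured; concentration calculated using the tryptophan extinction coefficient.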
Data set [4] has as its target T3, full-length beta-catenin (UniProt P35222 2-781, limits assumed).
T3 construct: mature; also called full-length ß-Catenin; β-catenin
T3 sequence (looked up): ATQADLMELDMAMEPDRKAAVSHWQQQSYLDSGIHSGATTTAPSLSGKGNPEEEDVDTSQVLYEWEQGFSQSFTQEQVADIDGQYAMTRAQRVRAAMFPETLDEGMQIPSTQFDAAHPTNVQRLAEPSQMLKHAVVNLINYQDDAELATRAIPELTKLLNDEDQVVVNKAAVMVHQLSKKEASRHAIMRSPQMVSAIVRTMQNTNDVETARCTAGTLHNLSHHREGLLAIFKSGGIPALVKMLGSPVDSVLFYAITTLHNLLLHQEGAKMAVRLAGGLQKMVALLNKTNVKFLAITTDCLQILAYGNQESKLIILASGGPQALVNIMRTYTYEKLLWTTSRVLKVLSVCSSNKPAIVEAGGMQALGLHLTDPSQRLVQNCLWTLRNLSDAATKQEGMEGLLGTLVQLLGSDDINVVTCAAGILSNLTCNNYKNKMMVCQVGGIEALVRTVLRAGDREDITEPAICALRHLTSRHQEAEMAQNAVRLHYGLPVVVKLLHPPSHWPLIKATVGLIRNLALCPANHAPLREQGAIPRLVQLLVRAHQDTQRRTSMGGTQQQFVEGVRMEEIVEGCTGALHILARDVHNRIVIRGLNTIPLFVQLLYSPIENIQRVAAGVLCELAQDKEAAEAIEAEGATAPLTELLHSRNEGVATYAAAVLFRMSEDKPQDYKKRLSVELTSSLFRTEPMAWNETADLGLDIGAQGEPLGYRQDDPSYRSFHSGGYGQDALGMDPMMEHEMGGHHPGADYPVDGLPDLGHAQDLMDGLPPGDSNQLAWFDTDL
Briefly: competition FP; amino staple (cyclic). The protocol:
In some embodiments, a competition fluorescence polarization assay is used to assess binding of provided compounds to beta-catenin. In an exemplary procedure, solutions of provided compounds, e.g., provided stapled peptides, were prepared in a buffer (e.g., 50 mM Tris pH 8.0, 250 mM NaCl, 2% glycerol, 0.5 mM EDTA, 0.02% w/v sodium azide) using a 3-fold serial dilution from 5 µM. Probe solution (15 nM full-length ß-Catenin, 20 nM FITC labeled peptide in buffer) was prepared and incubated for a period of time, e.g., 5 minutes, and the a volume, e.g., 40 µL per well plated in suitable plate, e.g., a black polystyrene 384-well plate (Corning). Equal volume of the serial diluted peptide was added to the plate and incubated protected from light for 15 minutes prior to read. Reads were performed on a Spectramax M5 (Molecular Devices) in duplicate. Suitable probe was FITC-PEG1-PQ-S5-ILD-S5-HVRRVWR (SEQ ID NO: 1) (hydrocarbon staple formed by two S5 via olefin metathesis) and/or FITC-bA-PQ-S5-ILD-S5-HVRRVWR (SEQ ID NO: 3) (hydrocarbon staple formed by two S5 via olefin metathesis). […] Another peptide, FPO217c (Ac-AR_8ILDAHIM$B5$RVW (SEQ ID NO: 280), with N-terminal proline removed and valine replaced with isoleucine compared to FP0025c) was prepared.

In data set [5] the target is T3, full-length beta-catenin. Put plainly: competition FP, grade of FP EC50 (+: 500-5000 nM). The gist of the method: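 Compound 3-fold serially diluted from 5 µM in Tris pH 8.0, 250 mM NaCl buffer, added to premixed 15 nM full-length β-catenin and 20 nM FITC-labelled stapled axin-site peptide probe. Incubated 15 min in the dark, polarization read in duplicate.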

For `CC[C@H](C)[C@@H]1NC(=O)[C@H](Cc2c[nH]cn2)NC(=O)[C@H](C)NC(=O)[C@H](CC(=O)O)NC(=O)[C@H](CC(C)C)NC(=O)[C@H]([C@@H](C)CC)NC(=O)[C@](C)(NC(=O)[C@H](C)NC(C)=O)CCCCCCC=CCOC(=O)N(C)C[C@@](C)(C(=O)N[C@@H](CCCNC(=N)N)C(=O)N[C@H](C(=O)N[C@@H](Cc2c[nH]c3ccccc23)C(N)=O)C(C)C)NC1=O` [FP0338c, Ac-A-R8-I-L-D-A-H-I-MD-R-V-W-NH2], in data set [1], the concentration for a half-maximal effect (EC50) lay in the range of 100 to 500 nM. Besides, in data set [2] (Table 2, read-out: Kd by SPR), the equilibrium dissociation constant (Kd) worked out at 3 nM.

With `CC[C@H](C)[C@@H]1NC(=O)[C@H](Cc2c[nH]cn2)NC(=O)[C@H](C)NC(=O)[C@H](CC(=O)O)NC(=O)[C@H](CC(C)C)NC(=O)[C@H]([C@@H](C)CC)NC(=O)[C@](C)(NC(=O)[C@H](C)NC(C)=O)CCC=CCOC(=O)N(C)CCC[C@@](C)(C(=O)N[C@@H](CCCNC(=N)N)C(=O)N[C@H](C(=O)N[C@@H](Cc2c[nH]c3ccccc23)C(N)=O)C(C)C)NC1=O` [FP0509c, Ac-A-R4-I-L-D-A-H-I-MH-R-V-W-NH2], the concentration for a half-maximal effect (EC50) in data set [1] is less than 100 nM. The Kd in data set [2] (Table 2, read-out: Kd by SPR) was found to be 3 nM; in data set [2] (Table 3 Part A, read-out: Binding Kd) it was 3 nM. Also, the solubility in data set [3] (Table 2, read-out: Solubility) stood at 32 µM (≈ 49.9 µg/mL); in data set [3] (Table 3 Part A, read-out: Solubility in DPBS), 42 µM (≈ 65.4 µg/mL).

Take `CC[C@H](C)[C@@H]1NC(=O)[C@@](C)(NC(=O)[C@H](CCC(N)=O)NC(=O)[C@@H]2CCCN2C(C)=O)CCCC=CCCC[C@@](C)(C(=O)N[C@@H](Cc2c[nH]cn2)C(=O)N[C@H](C(=O)N[C@@H](CCCNC(=N)N)C(=O)N[C@@H](CCCNC(=N)N)C(=O)N[C@H](C(=O)N[C@@H](Cc2c[nH]c3ccccc23)C(=O)N[C@@H](CCCNC(=N)N)C(N)=O)C(C)C)C(C)C)NC(=O)[C@H](CC(=O)O)NC(=O)[C@H](CC(C)C)NC1=O` [FP0787s, Ac-P-Q-S5-I-L-D-S5-H-V-R-R-V-W-R-NH2]: the half-maximal effective concentration (EC50) in data set [1] was 100 to 500 nM. Moreover, in data set [2] (Table 2, read-out: Kd by SPR), the equilibrium dissociation constant (Kd) is 14 nM.

B1: FP0725a (peptide)
peptide: Ac-PQ[MA]ILD[R6]HVRRVWR-NH2
modifications: staple 3-7; also: amino staple: CO2 extruded from MA carbamate staple with Pd(PPh3)4
notes: also called FP-0725 (amino staple)
B1 yielded an EC50 in data set [4] of 580 nM. In addition, the “FP EC50” value in data set [5] was 500 to 5000 nM.

B2: FP0735a (peptide)
peptide: Ac-PQ[R6]ILD[MA]HVRRVWR-NH2
modifications: staple 3-7; also: amino staple: CO2 extruded from carbamate staple with Pd(PPh3)4
notes: also called FP-0735 (amino staple)
The molecule B2 yielded an EC50 in data set [4] of 2360 nM. Besides, the “FP EC50” value in data set [5] lay within 500 to 5000 nM.
